According to patent US20180021270A1, “METHODS FOR THE TREATMENT OF CANCER USING COENZYME Q10 IN COMBINATION WITH IMMUNE CHECKPOINT MODULATORS” (Berg LLC, priority 2016, published 2018):

Tests used:
human PBMCs (T cells) = assay: Viability of immune cell subpopulations within PBMCs (Annexin V/7 AAD flow cytometry); type: cell-based; details: 0-800 μM Coenzyme Q10, 24 hours, PHA-stimulated or unstimulated PBMCs
Method: PBMCs isolated from healthy human donor leukopaks were isolated and cryopreserved. To study the effect of Coenzyme Q10, cells were thawed, rested overnight and treated with or without phytohemagglutinin (PHA). PHA is a lectin protein found in plants which activates T cells by inducing mitosis. Various concentrations of Coenzyme Q10 (0, 12.5, 50, 200, 400 or 800 μM) were added to the cells at the same time. 24 hours to 72 hours post-treatment, frequency and viability of immune cell subpopulations was evaluated, as well as proliferative potential, cytokine secretion, and inhibitory receptor surface expression.
The viability of human immune cell subpopulations within PHA-stimulated or unstimulated PBMCs concurrently treated with Coenzyme Q10 was also determined. Cells were treated with 0, 12.5, 50, 200, 400 or 800 μM Coenzyme Q10 for 24 hours. Cell populations and viability was determined by flow cytometry using combinational staining of surface markers using Annexin V/7 AAD stains. Cells from 5 healthy donors were evaluated. Total, cytotoxic and helper T cell viability after treatment with increasing Coenzyme Q10 concentrations show T cell viability increased in response to Coenzyme Q10. FIG. 17A. […]

[1] = test system: mouse syngeneic tumor cell lines (LL2, Hepa1-6, B16F10, CT26, EMT6/P, Renca); assay: Cell viability (CellTiter-Fluor), all six mouse syngeneic tumor cell lines; type: cell-based; details: 0-25 mM, 72 hours, dose dependent
Method: The sensitivity of mouse syngeneic tumor cell lines to Coenzyme Q10 was evaluated in vitro. Six mouse syngeneic tumor cell lines from different tissue types were exposed to increasing concentrations of Coenzyme Q10 (0-25 mM) at 37° C. for 72 hours. Cell viability was measured using CellTiter-Fluor kit (Promega, Madison, Wis.). Graphs and IC50 values were calculated using GraphPad Prism using data for at least three independent experiments. Mouse syngeneic tumor cell lines evaluated were Lewis lung carcinoma (LL2), hepatoma (Hepa1-6) skin melanoma (B16F10), colon cancer (CT26), mammary gland adenocarcinoma (EMT6/P), and renal adenocarcinoma (Renca). As shown in FIGS. 24A-24F, Coenzyme Q10 reduced viability of all of the tumor cell lines in a dose dependent manner.

[2] = test system: PD-L1 protein on the surface of lung cancer cells (A549); assay: Flow cytometry of PD-L1 protein on the cancer cell surface; type: cell-based, human; details: A549, 72 hours after treatment
Method: (§1) Flow cytometry analysis with a fluorescent probe for PD-L1 was used to determine the expression of PD-L1 protein on the surface of various human cancer cell lines. The cells were treated with 100 μM Coenzyme Q10, or the IC50 of Coenzyme Q10 for each cell line. […] The increased PD-L1 levels observed in breast cancer cells in response to Coenzyme Q10 treatment were not due to changes in cell populations.
(§2) Human pancreatic (MIA PaCa-2), ovarian (SKOV-3), and lung (A549) cancer cell lines treated with Coenzyme Q10 were also analyzed by flow cytometry to determine PD-L1 protein expression on the cancer cell surface.

[3] = test system: PD-L1 protein on the surface of pancreatic cancer cells (MIA PaCa-2); assay: as above; type: cell-based, human; details: MIA PaCa-2, 72 hours after treatment
Method: as §1, §2

[4] = test system: PD-L1 protein on the surface of ovarian cancer cells (SKOV-3); assay: as above; type: cell-based, human; details: SKOV-3, 72 hours after treatment
Method: as §1, §2

[5] = test system: PD-L1 protein on the surface of breast cancer cells (MDA-MB231); assay: as above; type: cell-based, human
Method: as §1

[6] = test system: colon (HT29) cancer cells; assay: mRNA expression of PD1, PD-L1 and PD-L2 in cancer cells treated with Coenzyme Q10; type: cell-based, human; details: 50 μM Coenzyme Q10, relative to untreated cells (p<0.05; n=3)
Method: (§3) Levels of mRNA expression of the immune checkpoints PD1, PD-L1 and PD-L2 were determined in human breast (MDA-MB231), prostate (LnCAP), ovarian (SKOV-3), colon (HT29), lung (A549), liver (Huh-7), and pancreatic (MIA PaCa-2) cancer cells treated with 50 μM Coenzyme Q10, 100 μM Coenzyme Q10, or the IC50 of Coenzyme Q10 for each cell line.

[7] = test system: human T cells within PBMCs; assay: T cell proliferation by Click-iT EdU flow cytometry; type: cell-based; details: 200 μM Coenzyme Q10, 72 hours, EdU final 18 hours
Method: Proliferation of T cells was assessed by flow cytometry using Click-iT® EdU technology (Thermo Fisher Scientific, Waltham, Mass.), a proliferation assay that is optimized for fluorescence microscopy applications. In this assay, the modified thymidine analogue EdU is incorporated into newly synthesized DNA and fluorescently labeled with a bright, photostable Alexa Fluor® dye. PBMCs were obtained from three different human donors. PBMCs were incubated with or without PHA for 72 hours while concurrently treated with Coenzyme Q10 (200 μM). 10 μM of EdU was added for the final 18 hours and stained with Invitrogen Alexa Fluor 488 piclyl azide according to the manufacturer's protocol. Cells were then stained with surface marker antibodies for CD3/CD8, or CD3/CD4 to identify cytotoxic T cells or helper T cells, respectively. Cells were then analyzyed by flow cytometry applying gating strategy.

murine Balb/c PBMCs = assay: Frequency of PD-1 expressing cells within murine PBMCs; type: cell-based, mouse; details: 0-800 μM, 24 hours, dose dependent, unstimulated and PHA-stimulated cells
Method: The frequency of PD-1 expressing cells within PHA-stimulated or unstimulated murine Balb/c PBMCs was also evaluated. Cells were concurrently treated with Coenzyme Q10 (0, 12.5, 50, 200, 400 or 800 μM) for 24 hours and evaluated by flow cytometry using surface marker antibody for αCD3 and viability stains Annexin V/7AAD. Viable cells were identified by plotting Annexin V vs. 7 AAD, and gated viable cells were subjected to CD3 vs. PD-1 staining. Two experiments using two different pools of Balb/c PBMCs and one experiment using C57B1/6 PBMCs were conducted.

[8] = test system: breast (MDA-MB231), prostate (LnCAP), ovarian (SKOV-3), colon (HT29), lung (A549), liver (Huh-7), and pancreatic (MIA PaCa-2) cancer cells; assay: mRNA expression of PD1, PD-L1 and PD-L2 in cancer cells treated with Coenzyme Q10 (other treatment groups); type: cell-based, human; details: 50 μM, 100 μM or IC50 of Coenzyme Q10; all groups other than PD-L1 in HT29 at 50 μM
Method: as §3

## COC1=C(OC)C(=O)C(C/C=C(\C)CC/C=C(\C)CC/C=C(\C)CC/C=C(\C)CC/C=C(\C)CC/C=C(\C)CC/C=C(\C)CC/C=C(\C)CC/C=C(\C)CCC=C(C)C)=C(C)C1=O [Coenzyme Q10]
Human PBMCs (T cells)
  T cell viability (total, cytotoxic and helper T cells): increased
[1]
  Viability of all of the tumor cell lines: reduced
[2]
  Amount of PD-L1 on the cell surface: did not significantly change
  Percentage of cells having PD-L1 protein on their surface: did not significantly change
[3]
  Amount of PD-L1 protein on the cell surface: significantly increased
  Percentage of cells having PD-L1 protein on their surface: significantly increased
[4]
  Amount of PD-L1 protein on the cell surface: small but significant increase
  Percentage of cells having PD-L1 protein on their surface: did not significantly change
[5]; MDA-MB231, 3 hours after treatment
  Amount of PD-L1 protein on the cell surface: significantly increased
[5]; MDA-MB231, 6 hours after treatment
  Amount of PD-L1 protein on the cell surface, treated vs untreated: no significant difference
[5]; MDA-MB231, 72 hours after treatment
  Amount of PD-L1 protein on the cell surface: significantly increase
[5]; MDA-MB231, 72 hours after treatment, 100 μM or IC50 of Coenzyme Q10
  Percentage of cells having PD-L1 protein on their surface: did not significantly change
[5]; MDA-MB231, flow cytometry
  Cell populations, treated vs untreated cells: no changes
[6]
  PD-L1 mRNA expression: significant increase
[7]
  Proliferation of PHA-activated cytotoxic T cells: increased
Murine Balb/c PBMCs
  Frequency of PD-1 negative CD3 positive T cells: increased
[8]
  PD1, PD-L1 and PD-L2 mRNA expression, other treatment groups: no significant differences
